According to patent US9533978B2 (AstraZeneca AB, priority 2009, dated 2017):
Counter-ions that a name gives are not always drawn.

Each molecule was assayed against T1, Recombinant human TLR7 (Homo sapiens, UniProt Q9NYK1) (assay: Human TLR7 assay (HEK293 SEAP reporter)). Details: degree of TLR7 activation; SEAP induction in HEK293 cells stably expressing recombinant human TLR7 and pNiFty2-SEAP reporter, overnight incubation at 37° C., 0.1% (v/v) DMSO.
T1 construct: expressed in transfected cells; host or cells: HEK293 cell line stably expressing the pNiFty2-SEAP reporter plasmid; TLR7 in vector pUNO, blasticidin selection
T1 sequence (Q9NYK1 27-1049): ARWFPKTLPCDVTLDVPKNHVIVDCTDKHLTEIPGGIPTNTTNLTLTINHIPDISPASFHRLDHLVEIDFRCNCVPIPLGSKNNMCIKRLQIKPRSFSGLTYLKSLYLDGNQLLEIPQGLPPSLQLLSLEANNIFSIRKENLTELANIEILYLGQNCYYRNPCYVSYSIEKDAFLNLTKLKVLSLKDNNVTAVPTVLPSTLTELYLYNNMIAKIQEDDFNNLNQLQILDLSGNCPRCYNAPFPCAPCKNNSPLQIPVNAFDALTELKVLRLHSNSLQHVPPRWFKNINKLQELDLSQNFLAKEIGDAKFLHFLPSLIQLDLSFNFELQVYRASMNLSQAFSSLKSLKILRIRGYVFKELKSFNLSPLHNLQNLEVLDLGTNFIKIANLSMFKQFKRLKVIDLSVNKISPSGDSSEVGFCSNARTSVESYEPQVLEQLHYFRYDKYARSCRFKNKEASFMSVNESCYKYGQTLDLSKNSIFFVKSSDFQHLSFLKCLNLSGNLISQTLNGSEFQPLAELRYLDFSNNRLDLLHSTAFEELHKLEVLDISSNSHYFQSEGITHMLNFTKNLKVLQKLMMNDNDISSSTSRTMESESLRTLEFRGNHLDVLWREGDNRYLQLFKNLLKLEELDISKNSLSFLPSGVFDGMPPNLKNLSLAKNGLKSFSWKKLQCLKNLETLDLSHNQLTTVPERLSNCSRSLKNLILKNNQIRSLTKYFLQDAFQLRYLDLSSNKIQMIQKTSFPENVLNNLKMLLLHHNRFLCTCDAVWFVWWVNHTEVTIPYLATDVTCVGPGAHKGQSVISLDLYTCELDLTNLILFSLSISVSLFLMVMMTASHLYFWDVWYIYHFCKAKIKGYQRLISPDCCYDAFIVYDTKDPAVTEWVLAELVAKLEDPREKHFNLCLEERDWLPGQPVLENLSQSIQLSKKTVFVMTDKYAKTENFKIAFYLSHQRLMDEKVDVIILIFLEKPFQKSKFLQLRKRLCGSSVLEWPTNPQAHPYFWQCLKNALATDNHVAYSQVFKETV
Type: cell-based
Procedure: The ability of compounds to activate TLR7 in vitro was assessed using the human TLR7 assay described below.
Recombinant human TLR7 was stably expressed in a HEK293 cell line already stably expressing the pNiFty2-SEAP reporter plasmid; integration of the reporter gene was maintained by selection with the antibiotic zeocin. The most common variant sequence of human TLR7 (represented by the EMBL sequence AF240467) was cloned into the mammalian cell expression vector pUNO and transfected into this reporter cell-line. Transfectants with stable expression were selected using the antibiotic blasticidin. In this reporter cell-line, expression of secreted alkaline phosphatase (SEAP) is controlled by an NFkB/ELAM-1 composite promoter comprising five NFkB sites combined with the proximal ELAM-1 promoter. TLR signaling leads to the translocation of NFkB and activation of the promoter results in expression of the SEAP gene. TLR7-specific activation was assessed by determining the level of SEAP produced following overnight incubation of the cells at 37° C. with the standard compound in the presence of 0.1% (v/v) dimethylsulfoxide (DMSO). Concentration dependent induction of SEAP production by compounds was expressed as the concentration of compound which produced half of the maximal level of SEAP induction for that compound (EC50).

Q: How did the EC50 turn out when CCCCCNc1nc(N)nc(C)c1Cc1ccc(OCCCN2CCN(C)CC2)cc1OC [Example 38, 5-(2-Methoxy-4-(3-(4-methylpiperazin-1-yl)propoxy)benzyl)-6-methyl-N^4-pentylpyrimidine-2,4-diamine] was run?
A: 6.31 nM

Q: For CCC[C@@H](CO)Nc1nc(N)nc(C)c1Cc1ccc(C(=O)OCCCCN(C)C)cc1OC [Example 15, (S)-4-(Dimethylamino)butyl 4-((2-amino-4-(1-hydroxypentan-2-yl-amino)-6-methylpyrimidin-5-yl)methyl)-3-methoxybenzoate benzenesulfonate salt], which EC50 is on record?
A: 126 nM

Q: How did the EC50 turn out when CCCCCNc1nc(N)nc(C)c1Cc1cccc(O)c1 [Example 24, 3-((2-Amino-4-methyl-6-(pentylamino)pyrimidin-5-yl)methyl)phenol] was run?
A: 5010 nM

Q: CCCCCNc1nc(N)nc(C)c1Cc1ccc(OCCCN(C)C)cc1 [Example 4] was tested. Which EC50 did it give?
A: 63.1 nM

Q: CCCCCNc1nc(N)nc(C)c1Cc1ccc(OCCCO)cc1 [Example 8, 3-(4-((2-Amino-4-methyl-6-(pentylamino)pyrimidin-5-yl)methyl)-phenoxy)propan-1-ol] was tested. Which EC50 did it give?
A: 501 nM

Q: With CCCCCNc1nc(N)nc(C)c1Cc1ccc(OCCN(C)Cc2ccccc2)cc1 [Example 7, 5-(4-(2-(Benzyl(methyl)amino)ethoxy)benzyl)-6-methyl-N^4-pentyl-pyrimidine-2,4-diamine] as the molecule, how does the EC50 read?
A: 631 nM
